{
  "source": "BigSolDB 2.1",
  "data": [
    {"smiles": "O=C[C@H](O)[C@@H](O)[C@H](O)[C@H](O)CO", "values": [
      {"measurement": "solubility (mole fraction)", "setting": "in n-decanol, 348.15 K", "result": 0.000902},
      {"measurement": "solubility (mole fraction)", "setting": "in n-decanol, 353.15 K", "result": 0.000984},
      {"measurement": "solubility (mole fraction)", "setting": "in n-decanol, 357.15 K", "result": 0.00119},
      {"measurement": "solubility (mole fraction)", "setting": "in n-decanol, 367.15 K", "result": 0.00154},
      {"measurement": "solubility (mole fraction)", "setting": "in n-decanol, 372.15 K", "result": 0.00178},
      {"measurement": "solubility (mole fraction)", "setting": "in n-decanol, 377.15 K", "result": 0.00204},
      {"measurement": "solubility (mole fraction)", "setting": "in n-decanol, 382.15 K", "result": 0.00239},
      {"measurement": "solubility (mole fraction)", "setting": "in n-decanol, 387.15 K", "result": 0.00264},
      {"measurement": "solubility (mole fraction)", "setting": "in n-decanol, 392.15 K", "result": 0.00327},
      {"measurement": "solubility (mole fraction)", "setting": "in n-dodecanol, 349.15 K", "result": 0.000762},
      {"measurement": "solubility (mole fraction)", "setting": "in n-dodecanol, 355.15 K", "result": 0.000802},
      {"measurement": "solubility (mole fraction)", "setting": "in n-dodecanol, 360.15 K", "result": 0.000865},
      {"measurement": "solubility (mole fraction)", "setting": "in n-dodecanol, 365.15 K", "result": 0.0011},
      {"measurement": "solubility (mole fraction)", "setting": "in n-dodecanol, 370.15 K", "result": 0.0013},
      {"measurement": "solubility (mole fraction)", "setting": "in n-dodecanol, 375.15 K", "result": 0.0014},
      {"measurement": "solubility (mole fraction)", "setting": "in n-dodecanol, 382.15 K", "result": 0.00156},
      {"measurement": "solubility (mole fraction)", "setting": "in n-dodecanol, 387.15 K", "result": 0.00186},
      {"measurement": "solubility (mole fraction)", "setting": "in n-dodecanol, 393.15 K", "result": 0.00203},
      {"measurement": "solubility (mole fraction)", "setting": "in n-octanol, 345.15 K", "result": 0.00098},
      {"measurement": "solubility (mole fraction)", "setting": "in n-octanol, 355.15 K", "result": 0.00153},
      {"measurement": "solubility (mole fraction)", "setting": "in n-octanol, 364.15 K", "result": 0.00192},
      {"measurement": "solubility (mole fraction)", "setting": "in n-octanol, 369.15 K", "result": 0.00228},
      {"measurement": "solubility (mole fraction)", "setting": "in n-octanol, 374.15 K", "result": 0.00241},
      {"measurement": "solubility (mole fraction)", "setting": "in n-octanol, 379.15 K", "result": 0.0029},
      {"measurement": "solubility (mole fraction)", "setting": "in n-octanol, 383.15 K", "result": 0.00341}
    ]}
  ]
}
